Source: publication PMC5120204, “Identification of an orally active small-molecule PTHR1 agonist for the treatment of hypoparathyroidism” (Nature Communications, 2016)
Positions count from the first letter of the chain named.

Assays:
[1] = target: T1, hPTHR1–hPTHR2 chimeric receptors (C1, C2, C3) and mutant hPTHR1s (M24, M25, M26, M414V, P415L, L416V) (Homo sapiens, UniProt Q03431, A426C/A97V/D353E/D94P/DEL429-429/E431S/E93Y/E96D/G100Y/G350R/I363Y/K359I/K95Y/L436G/L446F/M425V/M445L/N348D/N358D/Q438E/Q440R/S101A/S341V/S356A/S370A/S433T/T349A/T427L/T430H/T435L/T99D/V334A/V338A/V340A/V342A/V365A/V372G/V432F/V439I/Y443C); assay type: cell-based; conditions: cells expressing C3
T1 construct: expressed in transfected cells; host or cells: COS-7 (transient)
T1 sequence (Q03431 other isoform, or with tags, fused parts or gaps with the stated changes): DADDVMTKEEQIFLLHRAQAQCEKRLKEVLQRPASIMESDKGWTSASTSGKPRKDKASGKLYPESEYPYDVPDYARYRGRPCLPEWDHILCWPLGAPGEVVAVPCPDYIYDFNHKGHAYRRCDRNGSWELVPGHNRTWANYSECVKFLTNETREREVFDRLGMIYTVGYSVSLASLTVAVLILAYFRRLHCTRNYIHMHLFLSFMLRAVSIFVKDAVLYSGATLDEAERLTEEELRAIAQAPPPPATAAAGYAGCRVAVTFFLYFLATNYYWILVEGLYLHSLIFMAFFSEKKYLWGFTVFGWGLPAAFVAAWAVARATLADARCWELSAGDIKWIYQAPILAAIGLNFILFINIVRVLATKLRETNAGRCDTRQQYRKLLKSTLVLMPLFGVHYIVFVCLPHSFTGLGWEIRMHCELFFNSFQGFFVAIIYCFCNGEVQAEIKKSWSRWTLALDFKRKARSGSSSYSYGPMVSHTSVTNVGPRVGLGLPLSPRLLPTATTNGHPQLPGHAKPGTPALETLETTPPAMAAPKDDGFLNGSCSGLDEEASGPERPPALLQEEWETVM
Method: (§1) COS-7 cells (ATCC) were seeded into a 96-well flat-bottomed plate (1.4 × 10^4 cells per 100 μl per well) and incubated overnight. The next day, the COS-7 cells were transfected by adding 10 μl of a mixture of hPTHR1, hPTHR2 or mutant hPTHR1 plasmid, rat PTHR1 or rat PTHR2 plasmid, or empty vector (0.1 μg per well), FuGENE HD Transfection Reagent (0.4 μl per well, Promega), and Opti-MEM I Reduced Serum Medium (10 μl per well, Life Technologies) to each well. […] The plate was placed in a 37 °C constant-temperature water bath for 20 min to allow the reaction to proceed. After incubation, the liquid in the wells was discarded, the wells were washed with the assay medium (100 μl per well), and the plate was frozen on dry ice. Next, 40 μl of 50 mmol l^−1 HCl was added to each well, and the plate was stored in a freezer set at ≤−20 °C. The cAMP concentrations were measured by using a cAMP EIA kit (GE Healthcare). EC50 values were determined from three independent experiments in duplicate by a non-linear regression Emax model (JMP ver.9.0.2, SAS Institute). The geometric mean of the EC50 values obtained in three experiments in duplicate was calculated using Microsoft Office Excel 2007. […]

[2] = target: T2, hPTHR1–hPTHR2 chimeric receptors (C1, C2, C3) and mutant hPTHR1s (M24, M25, M26, M414V, P415L, L416V) (Homo sapiens, UniProt Q03431, L416V/M414V/P415L); assay type: cell-based; conditions: mutant receptor M25 (M414, P415, L416 replaced)
T2 construct: expressed in transfected cells; host or cells: COS-7 (transient)
T2 sequence (Q03431 27-593 E93Y/D94P/K95Y/E96D/A97V/T99D/G100Y/S101A/M414V/P415L/L416V): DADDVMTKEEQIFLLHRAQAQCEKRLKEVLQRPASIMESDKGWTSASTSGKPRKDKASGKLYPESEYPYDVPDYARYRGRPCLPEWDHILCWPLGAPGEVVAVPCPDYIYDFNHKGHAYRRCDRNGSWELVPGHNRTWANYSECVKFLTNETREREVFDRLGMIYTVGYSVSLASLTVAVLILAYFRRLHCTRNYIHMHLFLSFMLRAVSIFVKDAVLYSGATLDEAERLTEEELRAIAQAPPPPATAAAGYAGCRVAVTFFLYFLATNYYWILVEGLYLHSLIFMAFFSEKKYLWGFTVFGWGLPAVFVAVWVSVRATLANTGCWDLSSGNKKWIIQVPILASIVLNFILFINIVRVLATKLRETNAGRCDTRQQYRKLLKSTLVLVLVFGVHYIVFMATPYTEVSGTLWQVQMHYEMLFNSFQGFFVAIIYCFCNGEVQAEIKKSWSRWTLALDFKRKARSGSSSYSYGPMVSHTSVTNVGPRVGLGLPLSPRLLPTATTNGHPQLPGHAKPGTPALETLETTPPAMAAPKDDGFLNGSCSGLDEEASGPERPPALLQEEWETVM
Method: as §1

[3] = target: T3, hPTHR1–hPTHR2 chimeric receptors (C1, C2, C3) and mutant hPTHR1s (M24, M25, M26, M414V, P415L, L416V) (Homo sapiens, UniProt Q03431, P415L); assay type: cell-based; conditions: single replacement P415L
T3 construct: expressed in transfected cells; host or cells: COS-7 (transient)
T3 sequence (Q03431 27-593 E93Y/D94P/K95Y/E96D/A97V/T99D/G100Y/S101A/P415L): T2 sequence (Q03431 27-593 E93Y/D94P/K95Y/E96D/A97V/T99D/G100Y/S101A/M414V/P415L/L416V) with V388M, V390L
Method: as §1

[4] = system: hPTHR1–hPTHR2 chimeric receptors (C1, C2, C3) and mutant hPTHR1s (M24, M25, M26, M414V, P415L, L416V); assay type: cell-based, human
Method: as §1

normal dogs = assay: Single administration study in normal dogs; assay type: in vivo, dog; conditions: single oral administrations 3.0−30 mg kg^−1
Method: Marshall Beagle dogs (20 months old, male, Marshall BioResources Japan Inc) were treated once orally (vehicle or PCO371 at 3, 10 or 30 mg kg^−1). Six dogs were assigned to each group. Vehicle for PCO371 was the same as in the rat studies. The sample size was determined based on previous experiments with hPTHs in our laboratories (n=6). Blood was collected from the cephalic vein immediately before and at 1, 2, 4, 6, 8, 10 and 24 h after administration to measure serum Ca levels (o-CPC method, Wako Pure Chemical Industries).

[5] = Pharmacokinetics in normal rats; conditions: for half-life / AUC(0-inf) / Cmax / Tmax: female, RccHan:WIST, rat, plasma, po
Method: PCO371 was administered at a dose of 2, 6 or 18 mg kg^−1 orally to 7-week-old normal female rats (RccHan: WIST, JLA; three rats for each dose group), or at a dose of 2, 6 or 18 mg kg^−1 orally to 7-week-old female TPTX rats [Crl:CD(SD), Charles River Laboratories; three TPTX rats for each dose group] or at 30 mg kg^−1 orally or 3, 10 mg kg^−1 intravenously to 55-week-old OVX rats as described above. Blood samples were collected at 15 and 30 min, and 1, 2, 4, 8 and 24 h after administration. […] The concentrations of plasma PCO371 were determined by liquid chromatography–tandem mass spectrometry [LC-MS/MS (API-3200 (AB SCIEX), detection limit: 1 ng ml^−1).

Cc1cc(N2C(=O)NC(=O)C2(C)C)cc(C)c1CCS(=O)(=O)N1CCC2(CC1)N=C(c1ccc(OC(F)(F)F)cc1)NC2=O [PCO371, 1-{3,5-dimethyl-4-[2-({4-oxo-2-[4-(trifluoromethoxy)phenyl]-1,3,8-triazaspiro[4.5]dec-1-en-8-yl}sulfonyl)ethyl]phenyl}-5,5-dimethylimidazolidine-2,4-dione]
cAMP response [1]: responded well
cAMP increase [2]: lack of cAMP increase
cAMP production [3]: dramatic reduction
cAMP ([4]; cells expressing C1 or C2): did not do so
cAMP response ([4]; single replacements M414V and L416V): only modest effects
serum Ca (normal dogs): significantly increased
half-life [5]: 1.5 to 1.7 h
AUC(0-inf) ([5]; 2 mg/kg): 374 ± 187 ng·h/mL
Cmax ([5]; 2 mg/kg): 92.5 ± 37.1 ng/mL
Tmax ([5]; 2 mg/kg): 1.5 ± 0.9 h
half-life ([5]; 2 mg/kg): 1.5 ± 0.1 h
AUC(0-inf) ([5]; 6 mg/kg): 2360 ng·h/mL
Cmax ([5]; 6 mg/kg): 727 ± 103 ng/mL
Tmax ([5]; 6 mg/kg): 1 h
half-life ([5]; 6 mg/kg): 1.4 ± 0.2 h
AUC(0-inf) ([5]; 18 mg/kg): 18600 ng·h/mL
Cmax ([5]; 18 mg/kg): 4560 ng/mL
Tmax ([5]; 18 mg/kg): 1.3 ± 0.6 h
half-life ([5]; 18 mg/kg): 1.7 ± 0.3 h
BA (oral bioavailability) ([5]; normal rats, p.o. 2 mg kg^−1): 34%
time at which Cmax was attained ([5]; normal rats, single oral dose, dose range tested): 1 to 1.5 h
